Data taken from ChEMBL document CHEMBL1130502, “Lipopeptide antifungal agents: Amine conjugates of the semi-synthetic pneumocandins L-731,373 and L-733,560” (Bioorg Med Chem Lett, 1997).
In brackets after ≈: the same amount, converted by molar mass. *1 amine or outer side, *2 acyl side, *3 side chain or, on linkers, in order; H or OH if unused. Where a SMILES comes first, the peptide text is derived from it. Bridges are numbered along the chain shown (N, C = ends). [ ]: non-standard residue; d: D form. The star is where a group is joined. ξ: configuration not given here. ξOrn(4R-OH,5R-OH) = O=C(C(C[C@@H](O)[C@@H](O)N[*:3])N[*:1])[*:2]; hTyr(3S-OH,4S-OH) = N[C@H](C(=O)O)[C@H](O)[C@@H](O)c1ccc(O)cc1; Orn(3R-OH) = NCC[C@@H](O)[C@H](N)C(=O)O; X2 = O=C(C1CN([*:1])C[C@@H]1O)[*:2]; ξPro(4R-OH) = O=C(O)C1C[C@@H](O)CN1; X1 = CCC(C)CC(C)CCCCCCCCC(=O)*

Experiments:
1,3-beta-glucan synthase = 1,3-beta-glucan synthase (Candida glabrata, UniProt F5BCZ9); assay: Inhibition of 1,3-beta-glucan synthase; design: species or system Candida glabrata CBS 138
Sequence of 1,3-beta-glucan synthase (F5BCZ9 whole entry): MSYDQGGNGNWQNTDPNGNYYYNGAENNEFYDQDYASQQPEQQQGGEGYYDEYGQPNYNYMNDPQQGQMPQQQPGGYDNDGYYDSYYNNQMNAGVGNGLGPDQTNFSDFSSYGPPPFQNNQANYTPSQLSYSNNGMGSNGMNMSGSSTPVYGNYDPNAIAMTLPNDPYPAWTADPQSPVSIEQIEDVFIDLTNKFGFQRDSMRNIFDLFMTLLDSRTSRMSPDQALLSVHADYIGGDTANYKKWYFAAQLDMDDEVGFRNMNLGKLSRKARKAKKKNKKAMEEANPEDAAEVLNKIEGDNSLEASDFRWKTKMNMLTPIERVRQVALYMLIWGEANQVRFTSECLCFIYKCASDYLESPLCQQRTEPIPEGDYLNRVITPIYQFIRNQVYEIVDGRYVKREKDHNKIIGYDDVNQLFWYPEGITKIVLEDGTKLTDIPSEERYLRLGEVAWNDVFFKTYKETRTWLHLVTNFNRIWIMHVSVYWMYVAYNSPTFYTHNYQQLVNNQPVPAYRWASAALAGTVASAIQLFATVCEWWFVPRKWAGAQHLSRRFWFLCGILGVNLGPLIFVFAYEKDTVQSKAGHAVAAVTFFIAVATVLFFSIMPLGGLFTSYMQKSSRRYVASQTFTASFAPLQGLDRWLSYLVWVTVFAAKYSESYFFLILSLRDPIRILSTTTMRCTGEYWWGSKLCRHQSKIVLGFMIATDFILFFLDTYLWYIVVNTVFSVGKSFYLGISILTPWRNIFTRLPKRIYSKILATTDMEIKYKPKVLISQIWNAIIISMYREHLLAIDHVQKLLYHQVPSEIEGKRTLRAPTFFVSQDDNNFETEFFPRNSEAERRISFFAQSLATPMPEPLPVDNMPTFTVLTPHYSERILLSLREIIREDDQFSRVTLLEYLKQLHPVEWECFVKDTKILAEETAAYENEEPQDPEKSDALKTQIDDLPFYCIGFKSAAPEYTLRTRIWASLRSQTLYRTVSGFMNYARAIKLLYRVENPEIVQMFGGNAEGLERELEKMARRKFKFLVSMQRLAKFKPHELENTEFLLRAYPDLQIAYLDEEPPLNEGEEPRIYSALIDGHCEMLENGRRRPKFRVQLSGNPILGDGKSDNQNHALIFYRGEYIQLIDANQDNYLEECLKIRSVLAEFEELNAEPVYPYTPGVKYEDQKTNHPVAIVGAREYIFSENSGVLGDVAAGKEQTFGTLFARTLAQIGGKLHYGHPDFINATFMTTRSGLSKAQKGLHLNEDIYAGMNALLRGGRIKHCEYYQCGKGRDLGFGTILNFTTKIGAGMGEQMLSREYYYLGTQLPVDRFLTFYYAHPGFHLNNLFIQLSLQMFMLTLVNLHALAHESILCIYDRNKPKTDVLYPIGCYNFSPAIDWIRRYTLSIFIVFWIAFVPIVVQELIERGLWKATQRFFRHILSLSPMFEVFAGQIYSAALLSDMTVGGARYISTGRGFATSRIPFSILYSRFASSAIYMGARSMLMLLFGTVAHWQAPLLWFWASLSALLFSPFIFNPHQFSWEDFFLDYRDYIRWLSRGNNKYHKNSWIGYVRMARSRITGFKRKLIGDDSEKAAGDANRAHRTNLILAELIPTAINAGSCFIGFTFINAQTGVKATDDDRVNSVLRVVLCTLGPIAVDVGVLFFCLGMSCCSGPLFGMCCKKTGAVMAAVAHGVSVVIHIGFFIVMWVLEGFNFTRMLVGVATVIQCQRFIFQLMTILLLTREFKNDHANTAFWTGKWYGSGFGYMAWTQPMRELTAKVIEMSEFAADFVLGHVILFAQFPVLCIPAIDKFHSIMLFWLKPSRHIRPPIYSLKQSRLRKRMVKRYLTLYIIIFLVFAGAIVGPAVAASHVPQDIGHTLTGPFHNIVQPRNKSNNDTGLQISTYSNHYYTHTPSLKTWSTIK

Candida albicans [1] = assay: Tested for minimum fungicidal concentration (MFC) against Candida albicans (MY 1055); type: functional
Mus musculus [2] = organism: Mus musculus; assay: […] anti-candida activity expressed as ED99.9 in a mouse model of disseminated candidiasis (TOKA); type: functional
Mus musculus [3] = organism: Mus musculus; assay: Percentage of mice with complete eradication of candida in kidneys; type: functional, Kidney
[4] = Acute toxicity in mice after intravenous administration; conditions: mouse, in vivo
Mus musculus [5] = assay: In vivo effective intraperitoneal dose to achieve least 50% survival in a mouse model of disseminated aspergillosis; type: functional; conditions: ip
Candida albicans [6] = assay: Tested for in vitro minimum fungicidal concentration (MFC) against C. albicans; 0.03-0.5; type: functional
Pichia kudriavzevii = assay: Tested for in vitro minimum fungicidal concentration (MFC) against C. krusei; 1-2; type: functional
Kluyveromyces marxianus = assay: Tested for in vitro minimum fungicidal concentration (MFC) against C. pseudotropicalis; 0.06-0.5; type: functional
Nakaseomyces glabratus = assay: Tested for in vitro minimum fungicidal concentration (MFC) against C. glabrata; 0.5-1; type: functional
Candida parapsilosis = assay: Tested for in vitro minimum fungicidal concentration (MFC) against C. parapsilosis; 0.25-1; type: functional
[7] = system: Meyerozyma guilliermondii; assay: Tested for in vitro minimum fungicidal concentration (MFC) against C. guilliermondii; 0.5-4; type: functional
Candida tropicalis = assay: Tested for in vitro minimum fungicidal concentration (MFC) against C. tropicalis; 0.06-1; type: functional
Clavispora lusitaniae = assay: Tested for in vitro minimum fungicidal concentration (MFC) against C. lusitaniae; 0.06-0.5; type: functional
Cryptococcus neoformans = assay: Tested for in vitro minimum fungicidal concentration (MFC) against C. neoformans; 8-32; type: functional

| Compound | IC50 (1,3-beta-glucan synthase) [nM] | MFC (Candida albicans [1]) [µg/mL] | ED99.9 (Mus musculus [2]) [mg/kg] | Sterilized (Mus musculus [3]) [%] | Dose [4] [mg/kg] | ED50 (Mus musculus [5]) [mg/kg] | MFC90 (Candida albicans [6]) [µg/mL] | MFC90 (Pichia kudriavzevii) [µg/mL] | MFC90 (Kluyveromyces marxianus) [µg/mL] | MFC90 (Nakaseomyces glabratus) [µg/mL] | MFC90 (Candida parapsilosis) [µg/mL] | MFC90 [7] [µg/mL] | MFC90 (Candida tropicalis) [µg/mL] | MFC90 (Clavispora lusitaniae) [µg/mL] | MFC90 (Cryptococcus neoformans) [µg/mL] |
| --- | --- | --- | --- | --- | --- | --- | --- | --- | --- | --- | --- | --- | --- | --- | --- |
| CCC(C)CC(C)CCCCCCCCC(=O)NC1C[C@@H](O)[C@@H](O)NC(=O)C2CN(C[C@@H]2O)C(=O)[C@H]([C@H](O)CCNC(=O)[C@@H](N)CCCN)NC(=O)[C@H]([C@H](O)[C@@H](O)c2ccc(O)cc2)NC(=O)C2C[C@@H](O)CN2C(=O)[C@H]([C@@H](C)O)NC1=O (stereo partly drawn) | 3 | < 0.06 | 0.375 | 20 | > 200 |  |  |  |  |  |  |  |  |  |  |
| CCC(C)CC(C)CCCCCCCCC(=O)NC1C[C@@H](O)[C@@H](OCCN)NC(=O)C2CN(C[C@@H]2O)C(=O)[C@H]([C@H](O)CCNC(=O)[C@@H](N)CN)NC(=O)[C@H]([C@H](O)[C@@H](O)c2ccc(O)cc2)NC(=O)C2C[C@@H](O)CN2C(=O)[C@H]([C@@H](C)O)NC1=O (stereo partly drawn) | 4 | 1 (≈ 0.847 µM) | 0.375 | 100 | > 100 | 0.07 |  |  |  |  |  |  |  |  |  |
| CCC(C)CC(C)CCCCCCCCC(=O)NC1C[C@@H](O)[C@@H](O)NC(=O)C2CN(C[C@@H]2O)C(=O)[C@H]([C@H](O)CCNC(C)=O)NC(=O)[C@H]([C@H](O)[C@@H](O)c2ccc(O)cc2)NC(=O)C2C[C@@H](O)CN2C(=O)[C@H]([C@@H](C)O)NC1=O (stereo partly drawn) | 300 | 2 (≈ 1.83 µM) | 12 | 0 | > 250 |  |  |  |  |  |  |  |  |  |  |
| CCC(C)CC(C)CCCCCCCCC(=O)NC1C[C@@H](O)[C@@H](OCCN)NC(=O)C2CN(C[C@@H]2O)C(=O)[C@H]([C@H](O)CCNC(=O)[C@@H](N)CCN)NC(=O)[C@H]([C@H](O)[C@@H](O)c2ccc(O)cc2)NC(=O)C2C[C@@H](O)CN2C(=O)[C@H]([C@@H](C)O)NC1=O (stereo partly drawn) | 6 | 0.5 (≈ 0.419 µM) | 0.09 | 0 | 100 |  |  |  |  |  |  |  |  |  |  |
| CCC(C)CC(C)CCCCCCCCC(=O)NC1C[C@@H](O)[C@@H](O)NC(=O)C2CN(C[C@@H]2O)C(=O)[C@H]([C@H](O)CCNC(=O)[C@@H](N)CCN)NC(=O)[C@H]([C@H](O)[C@@H](O)c2ccc(O)cc2)NC(=O)C2C[C@@H](O)CN2C(=O)[C@H]([C@@H](C)O)NC1=O (stereo partly drawn) | 60 | 0.25 (≈ 0.217 µM) | 0.375 | 60 | > 250 |  |  |  |  |  |  |  |  |  |  |
| CCC(C)CC(C)CCCCCCCCC(=O)NC1C[C@@H](O)[C@@H](OCCN)NC(=O)C2CN(C[C@@H]2O)C(=O)[C@H]([C@H](O)CCN)NC(=O)[C@H]([C@H](O)[C@@H](O)c2ccc(O)cc2)NC(=O)C2C[C@@H](O)CN2C(=O)[C@H]([C@@H](C)O)NC1=O (stereo partly drawn) | 1 | 0.125 (≈ 0.114 µM) | 0.09 | 80 | 30 | 0.03 | 0.5 (≈ 0.457 µM) | 1 (≈ 0.914 µM) | 0.5 (≈ 0.457 µM) | 1 (≈ 0.914 µM) | 0.5 (≈ 0.457 µM) | 4 (≈ 3.66 µM) | 0.5 (≈ 0.457 µM) | 0.5 (≈ 0.457 µM) | 32 (≈ 29.2 µM) |
| CCC(C)CC(C)CCCCCCCCC(=O)NC1C[C@@H](O)[C@@H](O)NC(=O)C2CN(C[C@@H]2O)C(=O)[C@H]([C@H](O)CCNC(=O)[C@@H](N)CCCCN)NC(=O)[C@H]([C@H](O)[C@@H](O)c2ccc(O)cc2)NC(=O)C2C[C@@H](O)CN2C(=O)[C@H]([C@@H](C)O)NC1=O (stereo partly drawn) | 10 | < 0.06 | 0.375 | 20 | 150 |  |  |  |  |  |  |  |  |  |  |
| CCC(C)CC(C)CCCCCCCCC(=O)NC1C[C@@H](O)[C@@H](O)NC(=O)C2CN(C[C@@H]2O)C(=O)[C@H]([C@H](O)CCNC(=O)CCCCCN)NC(=O)[C@H]([C@H](O)[C@@H](O)c2ccc(O)cc2)NC(=O)C2C[C@@H](O)CN2C(=O)[C@H]([C@@H](C)O)NC1=O (stereo partly drawn) | 90 | 0.5 (≈ 0.429 µM) | >1.5 | 0 | 250 |  |  |  |  |  |  |  |  |  |  |
| CCC(C)CC(C)CCCCCCCCC(=O)NC1C[C@@H](O)[C@@H](OCCN)NC(=O)C2CN(C[C@@H]2O)C(=O)[C@H]([C@H](O)CCNC(=O)[C@@H](N)CCCCN)NC(=O)[C@H]([C@H](O)[C@@H](O)c2ccc(O)cc2)NC(=O)C2C[C@@H](O)CN2C(=O)[C@H]([C@@H](C)O)NC1=O (stereo partly drawn) | 3 | 0.125 (≈ 0.102 µM) | 0.09 | 0 | 60 | < 0.02 |  |  |  |  |  |  |  |  |  |
| CCC(C)CC(C)CCCCCCCCC(=O)NC1C[C@@H](O)[C@@H](O)NC(=O)C2CN(C[C@@H]2O)C(=O)[C@H]([C@H](O)CCNC(=O)CCCCN)NC(=O)[C@H]([C@H](O)[C@@H](O)c2ccc(O)cc2)NC(=O)C2C[C@@H](O)CN2C(=O)[C@H]([C@@H](C)O)NC1=O (stereo partly drawn) | 20 | 0.5 (≈ 0.435 µM) | 1.5 | 0 | 250 |  |  |  |  |  |  |  |  |  |  |
| CCC(C)CC(C)CCCCCCCCC(=O)NC1C[C@@H](O)[C@@H](O)NC(=O)C2CN(C[C@@H]2O)C(=O)[C@H]([C@H](O)CCNC(=O)CCCCCCN)NC(=O)[C@H]([C@H](O)[C@@H](O)c2ccc(O)cc2)NC(=O)C2C[C@@H](O)CN2C(=O)[C@H]([C@@H](C)O)NC1=O (stereo partly drawn) |  | 2 (≈ 1.7 µM) | >1.5 | 0 | 200 |  |  |  |  |  |  |  |  |  |  |
| CCC(C)CC(C)CCCCCCCCC(=O)NC1C[C@@H](O)[C@@H](O)NC(=O)C2CN(C[C@@H]2O)C(=O)[C@H]([C@H](O)CCNC(=O)CN)NC(=O)[C@H]([C@H](O)[C@@H](O)c2ccc(O)cc2)NC(=O)C2C[C@@H](O)CN2C(=O)[C@H]([C@@H](C)O)NC1=O (stereo partly drawn) | 15 | 0.5 (≈ 0.451 µM) | 0.375 | 20 | 250 |  |  |  |  |  |  |  |  |  |  |
| CCC(C)CC(C)CCCCCCCCC(=O)NC1C[C@@H](O)[C@@H](O)NC(=O)C2CN(C[C@@H]2O)C(=O)[C@H]([C@H](O)CCNC(=O)CCN)NC(=O)[C@H]([C@H](O)[C@@H](O)c2ccc(O)cc2)NC(=O)C2C[C@@H](O)CN2C(=O)[C@H]([C@@H](C)O)NC1=O (stereo partly drawn) | 25 | 0.125 (≈ 0.111 µM) | 1.5 | 100 | 250 |  |  |  |  |  |  |  |  |  |  |
| CCC(C)CC(C)CCCCCCCCC(=O)NC1C[C@@H](O)[C@@H](O)NC(=O)C2CN(C[C@@H]2O)C(=O)[C@H]([C@H](O)CCNC(=O)CCCN)NC(=O)[C@H]([C@H](O)[C@@H](O)c2ccc(O)cc2)NC(=O)C2C[C@@H](O)CN2C(=O)[C@H]([C@@H](C)O)NC1=O (stereo partly drawn) | 50 | < 0.06 | 1.5 | 40 | > 100 |  |  |  |  |  |  |  |  |  |  |
| CCC(C)CC(C)CCCCCCCCC(=O)NC1C[C@@H](O)[C@@H](O)NC(=O)C2CN(C[C@@H]2O)C(=O)[C@H]([C@H](O)CCNC(=O)[C@@H](N)CN)NC(=O)[C@H]([C@H](O)[C@@H](O)c2ccc(O)cc2)NC(=O)C2C[C@@H](O)CN2C(=O)[C@H]([C@@H](C)O)NC1=O (stereo partly drawn) | 30 | 1 (≈ 0.879 µM) | 1.5 | 100 | > 250 | > 1.25 |  |  |  |  |  |  |  |  |  |
| CCC(C)CC(C)CCCCCCCCC(=O)NC1C[C@@H](O)[C@@H](O)NC(=O)C2CN(C[C@@H]2O)C(=O)[C@H]([C@H](O)CCN)NC(=O)[C@H]([C@H](O)[C@@H](O)c2ccc(O)cc2)NC(=O)C2C[C@@H](O)CN2C(=O)[C@H]([C@@H](C)O)NC1=O (stereo partly drawn) (X1-[ξOrn(4R-OH,5R-OH)]T[ξPro(4R-OH)][hTyr(3S-OH,4S-OH)][Orn(3R-OH)][X2]; lactam 1-C) | 10 | < 0.06 | 0.375 | 70 | 100 | > 20 |  |  |  |  |  |  |  |  |  |
